Laboratory results: US20260103471A1, “CYCLIC UREA THIAZOLYL COMPOUNDS FOR TREATMENT OF HSV” (Assembly Biosciences, Inc., priority 2022, published 2026)

These compounds were tested on HSV-2 G strain (assay: HSV-2 Antiviral Assay (Vero cells, cell viability)). Details: Human alphaherpesvirus 2, Vero, 120 h, Vero cells, 160 TCID50 HSV-2 G strain, 5 days, cell viability.
Type: cell-based
Description: Vero cells were cultured in Dulbecco's Modified Eagle Medium (DMVEM) supplemented with […] and 100 units/mL penicillin and streptomycin. The cells were passaged 2-3 times per week to maintain sub-confluent densities.
Vero cells were seeded into 96-well plates at a density of 1.0×10^4 cells per well and allowed to attach overnight. Following attachment, the media was replaced with 50 μL of infection medium (DMEM supplemented with 2% fetal bovine serum and 100 units/mL penicillin and streptomycin). A Tecan D300e digital dispenser was then used to add compounds to the culture using an 8-point 3-fold serial dilution format. The DMSO concentration was normalized to 0.5% for all treatments. Following compound addition, 50 μL of infection medium containing 160 TCID50 HSV-2 G strain was added to the cells and incubated at 37° C. for 5 days. After the incubation, 10 μL/well of WST-8 chromogenic reagent was added and the plates incubated at 37° C. for 3 hours. Following the incubation, cell viability was quantified by measuring the absorbance at 460 nm and 620 nm using a Tecan Infinite M1000 Pro plate reader.

Row | EC50 | Compound
1 | < 100 nM | Cc1nc(N2CCCN(c3ccc(-c4nn(C)c5ccccc45)cc3)C2=O)sc1S(N)(=O)=O [Compound 92]
2 | 100 to 1000 nM | Cc1nc(N2CCCN(c3ccc(-c4cc(C(C)(F)F)cc5c4OCO5)cc3)C2=O)sc1S(N)(=O)=O [Compound 273]
3 | < 100 nM | Cc1nc(N2C(=O)N(c3ccc(-c4cc(F)ccc4F)cc3)CC[C@H]2C)sc1S(N)(=O)=O (single isomer, unassigned) [Compound 108]
4 | < 100 nM | Cc1nc(N2CCCN(c3ccc(-c4cccc5c4cc(C)n5C)cc3)C2=O)sc1S(N)(=O)=O [Compound 250]
5 | 100 to 1000 nM | COc1c(F)cc(F)cc1-c1ccc(N2C[C@H](C(C)(C)O)CN(c3nc(C)c(S(N)(=O)=O)s3)C2=O)cc1 (single isomer, unassigned) [Compound 347]
6 | 100 to 1000 nM | Cc1nc(N2CCCN(c3ccc(-c4ccccc4F)cc3)C2=O)sc1[S@@](C)(=N)=O (single isomer, unassigned) [Compound 144]
7 | < 100 nM | COc1c(F)cc(F)cc1-c1ccc(N2CC(F)CN(c3nc(C)c(S(N)(=O)=O)s3)C2=O)cc1 (stereo not drawn) [Compound 366]
8 | 1000 to 5000 nM | Cc1nc(N2CCCN(c3ccc(-c4ccccc4C4COC4)cc3)C2=O)sc1S(N)(=O)=O [Compound 197]
9 | < 100 nM | Cc1nc(N2CCCN(c3ccc(-c4cccc5c(C)csc45)cc3)C2=O)sc1S(N)(=O)=O [Compound 275]
10 | < 100 nM | Cc1nc(N2CC3(CC3)CN(c3ccc(-c4ncccc4F)cc3)C2=O)sc1S(N)(=O)=O [Compound 112]
11 | 1000 to 5000 nM | Cc1nc(N2CCCN(c3ccc(-n4cnc5ccccc54)cc3)C2=O)sc1S(N)(=O)=O [Compound 94]
12 | < 100 nM | Cc1nc(N2C[C@H](C(F)F)CN(c3ccc(-c4cc(F)ccc4F)cc3)C2=O)sc1S(N)(=O)=O (single isomer, unassigned) [Compound 350]
13 | < 100 nM | Cc1nc(N2CC[C@H](C)N(c3ccc(-c4cc(F)ccc4F)cc3)C2=O)sc1S(N)(=O)=O (single isomer, unassigned) [Compound 334]
14 | < 100 nM | Cc1nc(N2CCCN(c3ccc(-c4c(F)ccc5ncsc45)cc3)C2=O)sc1S(N)(=O)=O [Compound 70]
15 | 100 to 1000 nM | Cc1nc(N2CCCN(c3ccc(-c4cncc5ncsc45)cc3)C2=O)sc1S(N)(=O)=O [Compound 269]
16 | 1000 to 5000 nM | Cc1nc(N2CCCN(c3ccc(-c4cc(F)ccc4C#CC(C)(C)O)cc3)C2=O)sc1S(N)(=O)=O [Compound 19, 2-(3-(5′-Fluoro-2′-(3-hydroxy-3-methylbut-1-yn-1-yl)-[1,1′-biphenyl]-4-yl)-2-oxotetrahydropyrimidin-1(2H)-yl)-4-methylthiazole-5-sulfonamide]
17 | 100 to 1000 nM | Cc1nc(N2CCCN(c3ccc(-c4cncc5c4cnn5C)cc3)C2=O)sc1S(N)(=O)=O [Compound 288]
18 | 100 to 1000 nM | Cc1nc(N2CCCN(c3ccc(-c4cc(C#N)cc5ncsc45)cc3)C2=O)sc1S(N)(=O)=O [Compound 278]
19 | 1000 to 5000 nM | NS(=O)(=O)c1sc(N2CCCN(c3ccc(-c4cc(F)cc5nsnc45)cc3)C2=O)nc1C(F)(F)F [Compound 438]
20 | < 100 nM | Cc1nc(N2CC(F)(F)CN(c3ccc(-c4cc(F)ccc4F)cc3)C2=O)sc1S(N)(=O)=O [Compound 367]

Row | EC50 | Compound
21 | 100 to 1000 nM | Cc1nc(N2CCCN(c3ccc(-c4cc(F)cc5nc(C#N)sc45)cc3)C2=O)sc1S(N)(=O)=O [Compound 279]
22 | 100 to 1000 nM | Cc1nc(N2CCCN(c3ccc(-c4cc(C#N)cc5c4ccn5C)cc3)C2=O)sc1S(N)(=O)=O [Compound 302]
23 | < 100 nM | Cc1nc2cc(F)cc(-c3ccc(N4CCCN(c5nc(C)c(S(N)(=O)=O)s5)C4=O)cc3)c2s1 [Compound 256]
24 | 1000 to 5000 nM | Cc1nc(N2CCCN(c3ccc(-c4ccc(C#N)c5nsnc45)cc3)C2=O)sc1S(N)(=O)=O [Compound 286]
25 | < 100 nM | Cc1nc(N2CCCN(c3ccc(-c4cc(F)ccc4F)cc3)C2=O)sc1S(=O)(=O)NCCO [Compound 388, 2-(3-(2′,5′-difluoro-[1,1′-biphenyl]-4-yl)-2-oxotetrahydropyrimidin-1(2H)-yl)-N-(2-hydroxyethyl)-4-methylthiazole-5-sulfonamide]
26 | < 100 nM | Cc1nc(N2CC(C(F)(F)F)CN(c3ccc(-c4cc(F)ccc4F)cc3)C2=O)sc1S(N)(=O)=O (stereo not drawn) [Compound 368]
27 | < 100 nM | COc1ccc(F)cc1-c1ccc(N2C[C@@H](C)CN(c3nc(C)c(S(N)(=O)=O)s3)C2=O)cc1 (single isomer, unassigned) [Compound 330]
28 | 100 to 1000 nM | COc1ccc(-c2ccc(N3CCCN(c4nc(C)c(S(N)(=O)=O)s4)C3=O)cc2)c2ccn(C)c12 [Compound 296]
29 | < 100 nM | COc1ccc(F)cc1-c1ccc(N2CC3(COC3)CN(c3nc(C)c(S(C)(=O)=O)s3)C2=O)cc1 [Compound 435]
30 | 100 to 1000 nM | Cc1nc(N2CCCN(c3ccc(-c4ncccc4C(F)(F)F)cc3)C2=O)sc1S(N)(=O)=O [Compound 232]
31 | 100 to 1000 nM | Cc1nc(N2CCCN(c3ccc(-c4cccc(-c5ccnn5C)c4)cc3)C2=O)sc1S(N)(=O)=O [Compound 32]
32 | < 100 nM | CN=[S@@](C)(=O)c1sc(N2CCCN(c3ccc(-c4ccccc4F)cc3)C2=O)nc1C (single isomer, unassigned) [Compound 147]
33 | 100 to 1000 nM | Cc1nc(N2CCCN(c3ccc(-c4scnc4C#N)cc3)C2=O)sc1S(N)(=O)=O [Compound 47]
34 | 100 to 1000 nM | Cc1nc(N2CCCN(c3ccc(-c4cc(F)ccc4F)c4scnc34)C2=O)sc1S(N)(=O)=O [Compound 311]
35 | 100 to 1000 nM | Cc1nc(N2CCCN(c3ccc(-c4ccccc4/C=C/C#N)cc3)C2=O)sc1S(N)(=O)=O [Compound 20]
36 | < 100 nM | Cc1nc(N2C(=O)N(c3ccc(-c4cc(F)ccc4F)cc3)CCC2C)sc1S(N)(=O)=O (stereo not drawn) [Compound 107, 2-(3-(2′,5′-Difluoro-[1,1′-biphenyl]-4-yl)-6-methyl-2-oxotetrahydropyrimidin-1(2H)-yl)-4-methylthiazole-5-sulfonamide]
37 | 100 to 1000 nM | Cc1nc(N2CCCN(c3ccc(-c4cccc5c4OCCC5(F)F)cc3)C2=O)sc1S(N)(=O)=O [Compound 267]
38 | < 100 nM | Cc1cccc(-c2ccc(N3CCCN(c4nc(C)c(S(N)(=O)=O)s4)C3=O)cc2)n1 [Compound 184]
39 | < 100 nM | COc1c(F)cc(F)cc1-c1ccc(N2CCCN(c3nc(C(F)(F)F)c(S(N)(=O)=O)s3)C2=O)cc1 [Compound 437]
40 | 1000 to 5000 nM | Cc1cc(O)cc(-c2ccc(N3CCCN(c4nc(C)c(S(N)(=O)=O)s4)C3=O)cc2)n1 [Compound 238]

Row | EC50 | Compound
41 | 1000 to 5000 nM | Cc1nc(N2CC(C(=O)O)CN(c3ccc(-c4cc(F)ccc4F)cc3)C2=O)sc1S(N)(=O)=O (stereo not drawn) [Compound 380]
42 | < 100 nM | Cc1nc(N2CCCN(c3ccc(-c4cccc5nc(N)sc45)cc3)C2=O)sc1S(N)(=O)=O [Compound 69]
43 | < 100 nM | COc1ncc(F)cc1-c1ccc(N2CCCN(c3nc(C)c(S(N)(=O)=O)s3)C2=O)cc1 [Compound 239]
44 | 1000 to 5000 nM | Cc1nc(N2CCCN(c3ccc(-c4cc(F)cc5c(C)c(C#N)sc45)cc3)C2=O)sc1S(N)(=O)=O [Compound 280]
45 | 100 to 1000 nM | CN=[S@](C)(=O)c1sc(N2CCCN(c3ccc(-c4cc(F)ccc4F)cc3)C2=O)nc1C (single isomer, unassigned) [Compound 153]
46 | < 100 nM | Cc1nc(N2CCCN(c3ccc(-c4cccc(-c5nccs5)c4)cc3)C2=O)sc1S(N)(=O)=O [Compound 30, 4-methyl-2-(2-oxo-3-(3′-(thiazol-2-yl)-[1,1′-biphenyl]-4-yl)tetrahydropyrimidin-1(2H)-yl)thiazole-5-sulfonamide]
47 | 100 to 1000 nM | Cc1nc(N2CCCN(c3ccc(-c4cc(F)cc5cc(C(N)=O)sc45)cc3)C2=O)sc1S(N)(=O)=O [Compound 254]
48 | < 100 nM | Cc1nc(N2CCCN(c3ccc(-c4cccc(C5(C#N)CC5)c4)cc3)C2=O)sc1S(N)(=O)=O [Compound 198]
49 | < 100 nM | COc1cc(-c2ccc(N3CCCN(c4nc(C)c(S(N)(=O)=O)s4)C3=O)cc2)c2ccn(C)c2c1 [Compound 301]
50 | 100 to 1000 nM | Cc1nc(N2CCCN(c3ccc(-c4ccccc4/C=C\C#N)cc3)C2=O)sc1S(N)(=O)=O [Compound 21]
51 | < 100 nM | Cc1nc(N2CCCN(c3ccc(-c4nccc5ncsc45)cc3)C2=O)sc1S(N)(=O)=O [Compound 260]
52 | < 100 nM | Cc1nc(N2CCCN(c3ccc(-c4cc(Cl)cc(F)c4F)cc3)C2=O)sc1S(N)(=O)=O [Compound 214]
53 | 100 to 1000 nM | COc1c(F)cc(C#N)cc1-c1ccc(N2CCCN(c3nc(C)c(S(N)(=O)=O)s3)C2=O)cc1 [Compound 226]
54 | < 100 nM | Cc1nc(N2CCCN(c3ccc(-c4cccc(N)n4)cc3)C2=O)sc1S(=O)(=O)NC1CC1 [Compound 410]
55 | < 100 nM | COC(=O)C1CN(c2ccc(-c3cc(F)ccc3F)cc2)C(=O)N(c2nc(C)c(S(N)(=O)=O)s2)C1 (stereo not drawn) [Compound 384]
56 | 100 to 1000 nM | Cc1nc(N2CCCN(c3ccc(-c4cncs4)cc3)C2=O)sc1S(N)(=O)=O [Compound 49]
57 | < 100 nM | Cc1nc(N2CCCN(c3ccc(-c4cc(F)ccc4F)cc3)C2=O)sc1S(=O)(=O)N1CC2(COC2)C1 [Compound 403]
58 | 100 to 1000 nM | CN=[S@](C)(=O)c1sc(N2CCCN(c3ccc(-c4ccccc4F)cc3)C2=O)nc1C (single isomer, unassigned) [Compound 146]
59 | 100 to 1000 nM | Cc1ncsc1-c1ccc(N2CCCN(c3nc(C)c(S(N)(=O)=O)s3)C2=O)cc1 [Compound 50]

Same assay, conditions: Human alphaherpesvirus 2, Vero, 120 h, Vero cells, 5 days

Row | EC50 | Compound
60 | 28 nM | Cc1nc(N2CCN(c3ccc(-c4cc(F)cc5nsnc45)cc3)C2=O)sc1S(N)(=O)=O [Example 314]
